Laboratory results published in US10167262B2, “Herbicidal substituted 3-arylpyrazoles” (FMC CORPORATION, priority 2014, dated 2019).
Where two headings read alike, the source gives them in different places.

Experiments:
Experiment in all cases: Test C pre-/postemergence greenhouse test, plant response rating 0-100
Type in all cases: in vivo
[1] = test system: large (Lg) crabgrass (Digitaria sanguinalis); conditions: Digitaria sanguinalis; for pest or weed control at 62 g/ha: 62 g ai/ha; for pest or weed control at 125 g/ha: 125 g ai/ha; for pest or weed control at 250 g/ha: 250 g ai/ha; for pest or weed control at 500 g/ha: 500 g ai/ha
Excerpt: (§1) Seeds of plant species selected from blackgrass (Alopecurus myosuroides), Italian ryegrass (Lolium multiflorum), winter wheat (Triticum aestivum), galium (catchweed bedstraw, Galium aparine), corn (Zea mays), large (Lg) crabgrass (Digitaria sanguinalis), giant foxtail (Setaria faberii), johnsongrass (Sorghum halepense), lambsquarters (Chenopodium album), morningglory (Ipomoea coccinea), yellow nutsedge (Cyperus esculentus), pigweed (Amaranthus retroflexus), ragweed (common ragweed, Ambrosia elatior), soybean (Glycine max), barnyardgrass (Echinochloa crus-galli), oilseed rape (Brassica napus), waterhemp (common waterhemp, Amaranthus rudis), and velvetleaf (Abutilon theophrasti) were planted into a blend of loam soil and sand and treated preemergence with test chemicals formulated in a non-phytotoxic solvent mixture which included a surfactant.
(§2) At the same time, plants selected from these crop and weed species and also winter barley (Hordeum vulgare), bermudagrass (Cynodon dactylon), downy bromegrass (Bromus tectorum), canarygrass (Phalaris minor), cocklebur (common cocklebur, Xanthium strumarium), woolly cupgrass (Eriochloa villosa), deadnettle (henbit deadnettle, Lamium amplexicaule), green foxtail (Setaria viridis), goosegrass (Eleusine indica), surinam grass (Brachiaria decumbens), windgrass (Apera spica-venti), chickweed (common chickweed, Stellaria media), kochia (Kochia scoparia), and wild oat (Avena fatua), were planted in pots containing Redi-Earth® planting medium (Scotts Company, 14111 Scottslawn Road, Marysville, Ohio 43041) comprising spaghnum peat moss, vermiculite, wetting agent and starter nutrients and treated with postemergence applications of test chemicals formulated in the same manner. Plants ranged in height from 2 to 18 cm (1- to 4-leaf stage) for postemergence treatments. Treated plants and controls were maintained in a greenhouse for 13 to 15 days, after which time all species were compared to controls and visually evaluated. Plant response ratings, summarized in Table C, are based on a scale of 0 to 100 where 0 is no effect and 100 is complete control. A dash (-) response means no test result.

[2] = test system: winter wheat (Triticum aestivum); conditions: Triticum aestivum; for plant injury at 62 g/ha: 62 g ai/ha; for plant injury at 125 g/ha: 125 g ai/ha; for plant injury at 250 g/ha: 250 g ai/ha; for plant injury at 500 g/ha: 500 g ai/ha
Excerpt: as §1, §2

[3] = test system: giant foxtail (Setaria faberii); conditions: Setaria faberi; for pest or weed control at 62 g/ha: 62 g ai/ha; for pest or weed control at 125 g/ha: 125 g ai/ha; for pest or weed control at 250 g/ha: 250 g ai/ha; for pest or weed control at 500 g/ha: 500 g ai/ha
Excerpt: as §1, §2

soybean (Glycine max) = conditions: Glycine max; for plant injury at 62 g/ha: 62 g ai/ha; for plant injury at 125 g/ha: 125 g ai/ha; for plant injury at 250 g/ha: 250 g ai/ha; for plant injury at 500 g/ha: 500 g ai/ha
Excerpt: as §1, §2

[4] = test system: johnsongrass (Sorghum halepense); conditions: Sorghum halepense; for pest or weed control at 62 g/ha: 62 g ai/ha; for pest or weed control at 125 g/ha: 125 g ai/ha; for pest or weed control at 250 g/ha: 250 g ai/ha; for pest or weed control at 500 g/ha: 500 g ai/ha
Excerpt: as §1, §2

[5] = test system: morningglory (Ipomoea coccinea); conditions: Ipomoea; for pest or weed control at 62 g/ha: 62 g ai/ha; for pest or weed control at 125 g/ha: 125 g ai/ha; for pest or weed control at 250 g/ha: 250 g ai/ha; for pest or weed control at 500 g/ha: 500 g ai/ha
Excerpt: as §1, §2

[6] = test system: galium (catchweed bedstraw, Galium aparine); conditions: Galium, post-emergence; Postemergence, 62 g ai/ha; read-out: Plant response rating (0 to 100), Galium
Excerpt: as §1, §2

[7] = post-emergence, Postemergence, read-out: Plant response rating (0 to 100), Crabgrass, Large
[8] = post-emergence, Postemergence, scale 0 to 100
[9] = pre-emergence, Preemergence, read-out: Plant response rating, Crabgrass, Large
[10] = post-emergence, Postemergence, read-out: Plant response rating (0 to 100), Wheat
[11] = pre-emergence, Preemergence, read-out: Plant response rating, Wheat
[12] = post-emergence, Postemergence, read-out: Plant response rating (0 to 100), Foxtail, Giant
[13] = pre-emergence, Preemergence, read-out: Plant response rating, Foxtail, Giant
[14] = post-emergence, Postemergence, read-out: Plant response rating (0 to 100), Soybean
[15] = pre-emergence, Preemergence, read-out: Plant response rating, Soybean
[16] = post-emergence, Postemergence, read-out: Plant response rating (0 to 100), Johnsongrass
[17] = pre-emergence, Preemergence, read-out: Plant response rating, Johnsongrass
[18] = post-emergence, Postemergence, read-out: Plant response rating (0 to 100), Morningglory
[19] = pre-emergence, Preemergence, read-out: Plant response rating, Morningglory

`C#CCn1cc(C(=O)c2ccccc2)c(-c2cc(Cl)cc(Cl)c2)n1` [Compound 39, [3-(3,5-dichlorophenyl)-1-(2-propyn-1-yl)-1H-pyrazol-4-yl]phenylmethanone] showed a pest or weed control at 62 g/ha [1, 7] of 0%, a pest or weed control at 125 g/ha [1, 7] of 0% and a pest or weed control at 250 g/ha [1, 8] of 5%. For the same molecule, the pest or weed control at 500 g/ha [1, 8] was 15%, the pest or weed control at 62 g/ha [1, 9] was 0% and the pest or weed control at 125 g/ha [1, 9] was 0%. It also gave a pest or weed control at 250 g/ha ([1]; pre-emergence, Preemergence) of 0%, a pest or weed control at 500 g/ha ([1]; pre-emergence, Preemergence) of 0% and a plant injury at 62 g/ha [2, 10] of 0%. For the same molecule, the plant injury at 125 g/ha [2, 10] was 0%, the plant injury at 250 g/ha [2, 8] was 0% and the plant injury at 500 g/ha [2, 8] was 0%. The plant injury at 62 g/ha [2, 11] was 0%, the plant injury at 125 g/ha [2, 11] was 0% and the plant injury at 250 g/ha ([2]; pre-emergence, Preemergence) was 0%. The plant injury at 500 g/ha ([2]; pre-emergence, Preemergence) was 0%, the pest or weed control at 62 g/ha [3, 12] was 0% and the pest or weed control at 125 g/ha [3, 12] was 0%. It also gave a pest or weed control at 250 g/ha [3, 8] of 0%, a pest or weed control at 500 g/ha [3, 8] of 0% and a pest or weed control at 62 g/ha [3, 13] of 0%. For the same molecule, the pest or weed control at 125 g/ha [3, 13] was 0%, the pest or weed control at 250 g/ha ([3]; pre-emergence, Preemergence) was 0% and the pest or weed control at 500 g/ha ([3]; pre-emergence, Preemergence) was 0%. It also gave a plant injury at 62 g/ha (soybean (Glycine max); [14]) of 0%, a plant injury at 125 g/ha (soybean (Glycine max); [14]) of 0% and a plant injury at 250 g/ha (soybean (Glycine max); [8]) of 0%. The plant injury at 500 g/ha (soybean (Glycine max); [8]) was 0%, the plant injury at 62 g/ha (soybean (Glycine max); [15]) was 0% and the plant injury at 125 g/ha (soybean (Glycine max); [15]) was 0%. It also gave a plant injury at 250 g/ha (soybean (Glycine max); pre-emergence, Preemergence) of 0%, a plant injury at 500 g/ha (soybean (Glycine max); pre-emergence, Preemergence) of 0% and a pest or weed control at 62 g/ha [4, 16] of 0%. It also gave a pest or weed control at 125 g/ha [4, 16] of 0%, a pest or weed control at 250 g/ha [4, 8] of 5% and a pest or weed control at 500 g/ha [4, 8] of 5%. It also gave a pest or weed control at 62 g/ha [4, 17] of 0%, a pest or weed control at 125 g/ha [4, 17] of 0% and a pest or weed control at 250 g/ha ([4]; pre-emergence, Preemergence) of 0%. For the same molecule, the pest or weed control at 500 g/ha ([4]; pre-emergence, Preemergence) was 0%, the pest or weed control at 62 g/ha [5, 18] was 0% and the pest or weed control at 125 g/ha [5, 18] was 0%. It also gave a pest or weed control at 250 g/ha [5, 8] of 10%, a pest or weed control at 500 g/ha [5, 8] of 10% and a pest or weed control at 62 g/ha [5, 19] of 20%. For the same molecule, the pest or weed control at 125 g/ha [5, 19] was 20%, the pest or weed control at 250 g/ha ([5]; pre-emergence, Preemergence) was 20% and the pest or weed control at 500 g/ha ([5]; pre-emergence, Preemergence) was 20%. For the same molecule, the pest or weed control at 62 g/ha [6] was 0%.
